Data: ChEMBL document CHEMBL3864171, “Pyridyl Isonicotinamide Inhibitors of RAF Kinase” (ACS Med Chem Lett, 2016)

target: RAF proto-oncogene serine/threonine-protein kinase (Homo sapiens, UniProt P04049); test: Inhibition of 1 to 324 residues truncated c-Raf (unknown origin) expressed in baculovirus infected Sf9 insect cells using full length biotinylated MEK1 ATP binding site K97R mutant as substrate preincubated for 60 mins followed by ATP addition measured after 1 hr by alpha screen assay
Sequence (P04049 whole entry, the tested form may be a part): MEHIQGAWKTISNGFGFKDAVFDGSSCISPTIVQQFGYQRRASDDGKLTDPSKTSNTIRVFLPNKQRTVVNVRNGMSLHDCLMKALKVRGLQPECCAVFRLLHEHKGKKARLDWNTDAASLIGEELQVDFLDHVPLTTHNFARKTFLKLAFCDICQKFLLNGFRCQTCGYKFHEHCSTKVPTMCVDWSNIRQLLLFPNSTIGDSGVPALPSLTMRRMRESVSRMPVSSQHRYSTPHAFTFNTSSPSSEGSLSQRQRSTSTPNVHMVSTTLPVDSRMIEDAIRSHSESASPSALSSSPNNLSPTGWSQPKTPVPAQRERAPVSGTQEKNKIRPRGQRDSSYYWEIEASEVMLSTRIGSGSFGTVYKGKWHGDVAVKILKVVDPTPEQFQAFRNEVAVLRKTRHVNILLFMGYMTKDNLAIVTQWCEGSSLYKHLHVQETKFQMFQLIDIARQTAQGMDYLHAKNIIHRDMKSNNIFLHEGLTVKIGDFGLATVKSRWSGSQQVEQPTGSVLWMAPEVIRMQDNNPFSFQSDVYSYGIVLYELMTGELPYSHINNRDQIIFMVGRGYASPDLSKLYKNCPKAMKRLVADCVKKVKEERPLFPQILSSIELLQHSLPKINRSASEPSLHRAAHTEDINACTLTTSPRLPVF

Row | SMILES | IC50
1 | Cc1ccc(NC(=O)c2ccnc(C(F)(F)F)c2)cc1-c1cnc(OCCOP(=O)(O)O)c(N2CCOCC2)c1 | 0.03 nM
2 | Cc1ccc(NC(=O)c2ccnc(C(F)(F)F)c2)cc1-c1cc(OCCOP(=O)(O)O)nc(N2CCOC[C@H]2C)c1 | 2 nM
3 | Cc1ccc(NC(=O)c2cc(C(F)(F)F)ccn2)cc1-c1cc(OCC(O)CP(=O)(O)O)nc(N2CCOCC2)c1 (stereo unspecified) | 0.024 nM
4 | Cc1ccc(NC(=O)c2ccnc(C(F)(F)F)c2)cc1-c1cc(OCCOP(=O)(O)O)nc(N2CCOCC2)c1 | 0.1 nM
5 | Cc1ccc(NC(=O)c2ccnc(C(C)(F)F)c2)cc1-c1cc(OCCOP(=O)(O)O)nc(N2CCOC[C@H]2C)c1 | 0.1 nM
6 | Cc1ccc(NC(=O)c2cccc(C(F)(F)F)c2)cc1-c1cc(OCCOP(=O)(O)O)nc(N2CCOC[C@H]2C)c1 | 6 nM
